# Reference: US7001588B2, “Expanded porphyrin compositions for tumor inhibition” (Cylene Pharmaceuticals, priority 2002, dated 2006)
# “Also recorded” adds a separate entry of the source. Like-named read-outs stand apart in the source and are kept apart here.
# Tests used:
# Duplex DNA = assay: Polymerase stop assay, pausing at primer position (duplex product); type: biochemical; conditions: for Duplex DNA (ED30 μM): normalized percentage of duplex product; for Duplex DNA ED30, fold in parentheses (relative to c-MYC ED50): value in parentheses (×)
# Experimental: These were synthesized and purified as described above. Labeled primer (100 nM) and template DNA (100 nM) were annealed in an annealing buffer (50 mM Tris-HCl, pH 7.5, 10 mM NaCl) by heating to 95° C. and then slowly cooled to room temperature. […] KCl and NaCl (10 mM each) were added to the reaction. Taq DNA polymerase was added, and the mixture was incubated at 55° C. for 20 min.
# Pausing at the G-quadruplex forming site is quantified as the normalized percentage of stop product with respect to the total intensity per lane. […] This is quantified as the normalized percentage of duplex product with respect to the total intensity per lane.
# [1] = test system: c-MYC expression in HeLa S3 cells; assay: Effect on c-MYC transcription (real-time PCR, normalized to β-actin); type: cell-based, human; conditions: at high (100 μM) concentration, 24 h
# Experimental: In this example, the various porphyrins were tested for their effect on c-MYC RNA levels normalized to the levels of β-actin RNA production.
# TMPyP4, at a concentration of 100 μM, was also included for comparison.
# Cell cultures were permitted to reach ˜50% confluency before test compound was added for 24 hour treatments. This was adjusted as necessary depending on treatment times. Test compounds were diluted in media in which the cells were normally cultured. Cells were washed once with PBS, and new media containing compound was added directly to the flask. Cells were harvested concurrently with untreated cells. Timepoints were collected in duplicate for each treatment.
# RNA was extracted as follows: Cell pellets were lysed in Buffer RA I supplemented with 1% β-mercaptoethanol and RNA extracted according to the protocol included with the kit, and eluted in 50 μl of nuclease-free water included in the kit. RNA was quantitated by ultraviolet spectrophotometry, resuspended to a convenient concentration for downstream applications, and stored at −80° C. […]
# Real-time PCR was performed using the QuantiTect SYBR Green PCR Kit (Qiagen). […]
# The reactions were incubated in a DNA Engine Opticon Continuous Fluorescence Detector (MJ Research) as follows: 95° C., 14 min; (95° C., 1 min; 59° C., 1 min, 10 sec; 72° C., 1 min, 30 sec; plate read for fluorescence) 40×; 72° C., 10 min. […]
# [2] = test system: human telomeric G-quadruplex; assay: G-quadruplex polymerase stop assay, human telomeric template; type: biochemical; conditions: for EC50: Taq polymerase stop product, four TTAGGG repeats template, 37° C., read-out: Huam Telomeric (ED50 μM)
# [3] = target: c-MYC G-quadruplex (PU27 c-MYC sequence); assay: G-quadruplex polymerase stop assay, PU27 c-MYC template; type: biochemical; conditions: for EC50: Taq polymerase stop product, PU27 c-MYC template, 55° C., read-out: c-MYC (ED50 μM); for fold selectivity/preference for the c-MYC G-quadruplex over the human telomeric G-quadruplex: from ED50 values
# c-MYC G-quadruplex = assay: Photomediated strand cleavage reaction
# HeLa S3 cells = assay: In vitro cytotoxicity assay (CellTiter 96 MTS); type: cell-based, human
# Experimental: HeLa S3 (human cervical carcinoma metastasis were obtained from ATCC, and were cultured in Dulbecco's modification of Eagle's Medium (DMEM, Cellgro) with 10% FBS, 50 U/ml penicillin G sodium, 50 U/ml streptomycin sulfate. Adherent cells were grown to 80% confluency and passaged at 1:10 in the following fashion. The medium was aspirated by vacuum, and the cells were washed with 1×PBS (Cellgro). Sufficient trypsin (Gibco/BRL) was added to cover the cells, and cells were incubated at room temperature for approximately 3 min, or until cells detached from the flask with firm tapping. The trypsin was neutralized with an equal volume of culture medium, and the cells were counted using a haemocytometer and passaged at 1:10 into fresh medium. […]
# In vitro cytotoxicity assays were performed using the CellTiter 96 Non-Radioactive Cell Proliferation Assay (Promega Corp., Madison, Wis.). […] Absorbance was measured using a Wallac Victor Multilabel Counter (Perkin Elmer, Shelton, Conn.) at 490 nm. Data were expressed as the percentage of survival of control calculated from the absorbance corrected for background absorbance. The surviving fraction of cells was determined by dividing the mean absorbance values of the test agents by the mean absorbance values of untreated control.
Compound,"duplex (or single strand) DNA binding, in words (Duplex DNA)",inhibitory effect on c-MYC expression [1],interaction with the human telomeric G-quadruplex structure (ED50 can't be calculated) [2],"pausing in the polymerase synthesis at the G-quadruplex forming site ([2]; at 20 μM, template containing human telomeric sequence, FIG. 5B)",EC50 [3],fold selectivity/preference for the c-MYC G-quadruplex over the human telomeric G-quadruplex [3],"concentration giving complete arrest of the polymerase synthesis at the G-quadruplex forming site ([3]; template containing c-MYC sequence, FIG. 5A)","photoinduced cleavage of c-MYC G-quadruplex / photoactivity (c-MYC G-quadruplex; compared to TMPyP4, FIG. 7)",Duplex DNA (ED30 μM) (Duplex DNA),"Duplex DNA ED30, fold in parentheses (relative to c-MYC ED50) (Duplex DNA)",EC50 (HeLa S3 cells),EC50 [2],"EC50 (HeLa S3 cells; HeLa S3, 4 days, MTS, FIG. 8, read-out: cytotoxicity ED50)","photoinduced cleavage of c-MYC G-quadruplex (c-MYC G-quadruplex; at 1 μM, FIG. 6 lane 2)"
"5,10,15,20-tetra(N-methyl-3-pyridyl)-26,28-diselena sapphyrin chloride [Se2SAP]",little or no duplex binding activity; also recorded: absence of duplex binding,comparable to TMPyP4; also recorded: same as that of TMPyP4,only very little interaction,little pausing,0.025 µM,"greater than 1,000 fold",0.04 µM,minimal cleavage; also recorded: not photoactive,,,,,,
C[n+]1cccc(-c2c3nc(c(-c4ccc[n+](C)c4)c4ccc([nH]4)c(-c4ccc[n+](C)c4)c4nc(c(-c5ccc[n+](C)c5)c5ccc2[nH]5)C=C4)C=C3)c1 [TMPyP3],,,,,2.34 µM,8 fold,,,>50 (>50) μM,>50 (>50),43.4 µM,19.5 µM,,
C[n+]1ccc(-c2c3nc(c(-c4cc[n+](C)cc4)c4ccc([nH]4)c(-c4cc[n+](C)cc4)c4ccc([nH]4)c(-c4cc[n+](C)cc4)c4nc2C=C4)C=C3)cc1 [TMPyP4],little or no duplex binding activity,,,,0.99 µM,19 fold,,,>50 (>50) μM,>50 (>50),,18.9 µM,25.6 µM,considerable cleavage pattern
